According to US11666580B2, “Mechanism of resistance to bet bromodomain inhibitors” (Dana-Farber Cancer Institute, Inc., priority 2015, dated 2023):

Assays:
[1] = tested on: SUM159 cells; assay: Cell cycle analysis of SUM159 cells synchronized with nocodazole in G2/M; type: cell-based, human
Method: Cell cycle analysis was performed 72 hr after JQ1 treatment or BRD4 downregulation with doxycycline using propidium iodide (PI) staining. Cells were resuspended in 1 ml of growth medium supplemented with 2 μg/ml PI (Life Technologies) as final concentration. After 60 min at 37° C. in the dark, analysis was performed on a FACS AriaII cytometer (BD Biosciences). The cell cycle was plotted as histogram after excluding doublets. Cell synchronization Procedure. SUM159 cells were treated with nocodazole (200 ng/ml) for 12 h and then cells were tapped to detach from the plates. After washing twice with PBS, cells were replated with or without JQ1 in collagen coated plates. Cells were collected at 0, 3, 6, 12 h time point for FACS and immunoblot analysis.

[2] = tested on: xenografts derived from SUM159R cells; assay: Xenograft assay, SUM159R (BBI-resistant SUM159); type: in vivo, mice; conditions: JQ1 for 30 days
Method: For xenograft assays 5-6-weeks old female CrTac:NCr-Foxn1^nu and NOD.Cg-Prkdc^scid Il2rg^tm1Sug/JicTac mice were purchased from Taconic. Tumors were induced by bilateral orthotopic mammary fat pad injection of 1×10^6 cells in 50% Matrigel (BD Biosciences) in DMEM/F12 or Medium 171 (except for IDC50-X cells, which were injected with 3% FBS and 4 mg/ml collagen gel in Medium 171). Animal experiments were conducted following protocol 11-023 approved by the Dana-Farber Cancer Institute Animal Care and Use Committee.

[3] = tested on: TNBC cells; assay: Immunofluorescence microscopy for basal and luminal markers; type: cell-based, human; conditions: 3 days after JQ1 (500 nM)
Method: Antibodies used for immunofluorescence were CK18 (Dako, M7010), CK17 (Dako, M7046), HMW (Dako, M0630), LMW (Dako, M0631), CD44 (NeoMarkers, MS-668-P1), CD24 (NeoMarkers, MS-1279-P1), p-STAT3 (Cell Signaling, 9145S), VIM (Dako, M073501), CDH1 (BD Biosciences, 610181), FLAG (Sigma, F1804), BrdU (Roche, 11170376001). Immunofluorescence experiments were performed in cultured cells or in whole sections of formalin-fixed paraffin embedded (FFPE) xenograft tumors. The staining was performed as described^50. Antibody dilutions were as follows: pSTAT3 (1:25), CD44 (1:100), CD24 (1:100), CK18 (1:200), CK17 (1:200), HMK (1:200), LMK (1:200), VIM (1:100), CDH1 (1:100), FLAG (1:50), and BrdU (1:200).

[4] = tested on: TNBC cells (SUM159 and MDA-MB-231); assay: Senescence β-galactosidase staining; type: cell-based, human; conditions: JQ1 500 nM, 72 h
Method: Cell viability and growth assays (FIGS. 1A-1B, FIGS. 3A-3E, 3G, FIGS. 5D-5F, FIGS. 6C, 6E, 6I, FIG. 7A, FIG. 10D, FIGS. 14A-14C), cycle, apoptosis, and MDR assays were performed in triplicates and repeated 2-3 times. For cell proliferation assays, cells were plated at 500 cells per well in 96-well plates and treated the next day with inhibitors, DMSO or doxycycline (500 ng). Cells were cultured at 37° C. with 5% CO2 in the media described-above, and cell viability was measured using CellTiter-Glo three days after treatments. For cell growth assays, cells were plated at 5000 (SUM159) or 20000 (SUM149) cells per well in 6-well plates and treated the next day with inhibitors. Cells were counted every three days by cell counter. Cellular apoptosis was analyzed with an APC AnnexinV/7ADD Apoptosis Detection kit (BD Pharmingen). AnnexinV/7AAD assessments and cell cycle graphics were generated using FlowJo software V7.6.1 for Windows (Tree Star). Senescence Beta-gal staining was performed using Senescence β-Galactosidase staining kit from Cell signaling. Briefly, after JQ1 treatment (500 nM) for 72 h, SUM159 and MDA-MB-231 cells were fixed by Fixative Solution for 15 min, followed by β-Galactosidase solution incubation overnight at 37° C. The staining was checked under microscope for the development of blue color. […] The cells were analyzed by fluorescent microscope and FACS.

[5] = tested on: SUM159 cells; assay: Cell growth assay (viable cell numbers); type: cell-based, human; conditions: low (0.5 μM) and high (2.0 μM) doses, 6 days
Method: (§1) Cell viability and growth assays (FIGS. 1A-1B, FIGS. 3A-3E, 3G, FIGS. 5D-5F, FIGS. 6C, 6E, 6I, FIG. 7A, FIG. 10D, FIGS. 14A-14C), cycle, apoptosis, and MDR assays were performed in triplicates and repeated 2-3 times. For cell proliferation assays, cells were plated at 500 cells per well in 96-well plates and treated the next day with inhibitors, DMSO or doxycycline (500 ng). Cells were cultured at 37° C. with 5% CO2 in the media described-above, and cell viability was measured using CellTiter-Glo three days after treatments. For cell growth assays, cells were plated at 5000 (SUM159) or 20000 (SUM149) cells per well in 6-well plates and treated the next day with inhibitors. Cells were counted every three days by cell counter. Cellular apoptosis was analyzed with an APC AnnexinV/7ADD Apoptosis Detection kit (BD Pharmingen). AnnexinV/7AAD assessments and cell cycle graphics were generated using FlowJo software V7.6.1 for Windows (Tree Star). Senescence Beta-gal staining was performed using Senescence β-Galactosidase staining kit from Cell signaling. Briefly, after JQ1 treatment (500 nM) for 72 h, SUM159 and MDA-MB-231 cells were fixed by Fixative Solution for 15 min, followed by β-Galactosidase solution incubation overnight at 37° C. The staining was checked under microscope for the development of blue color. […] Briefly, SUM159 and SUM159R cells were treated with JQ1 or DMSO for 30 min in SUM medium. Verapamil was used as a positive control at 1:1000 dilution.

[6] = tested on: SUM159R cells; assay: Cell growth assay (viable cell numbers); type: cell-based, human; conditions: high concentrations (up to 20 μM) of JQ1
Method: as §1

[7] = tested on: SUM149 cells; assay: Cell growth assay (viable cell numbers); type: cell-based, human; conditions: low (0.5 μM) and high (2.0 μM) doses, 6 days
Method: as §1

[8] = tested on: SUM149R cells; assay: Cell growth assay (viable cell numbers); type: cell-based, human; conditions: high concentrations (up to 20 μM) of JQ1
Method: as §1

[9] = tested on: pSTAT3, pJAK2 and MYC in SUM159 cells; assay: Immunoblot kinetic study of signaling factors after JQ1; type: cell-based, human
Text: Immunoblotting and immunoprecipitation experiments were repeated 2-3 times.

SMILES: Cc1sc2c(c1C)C(c1ccc(Cl)cc1)=N[C@@H](CC(=O)OC(C)(C)C)c1nnc(C)n1-2 [JQ1]
- Cell cycle after release from G2/M ([1]; JQ1 (500 nM) added 3 hours after release): less pronounced effects
- Cell cycle after release from G2/M ([1]; JQ1 (500 nM) administered 1 hour before release): arrested in early G1 with high cyclin D1 levels
- Tumor response to JQ1 treatment [2]: not responsive
- Basal markers (HMW cytokeratins) [3]: decrease of high molecular-weight (HMW) cytokeratins
- Luminal markers (LMW cytokeratins, CK18) [3]: elevation of low molecular-weight (LMW) cytokeratins and cytokeratin 18 (CK18)
- Acidic β-galactosidase activity (senescence) [4]: markedly increased acidic β-galactosidase activity
- Proliferation [5]: severely impaired
- Proliferation [6]: continue to proliferate linearly over time
- Proliferation [7]: severely impaired
- Proliferation [8]: continue to proliferate linearly over time
- pSTAT3 and pJAK2 levels ([9]; SUM159, after 12 hours): decrease in pSTAT3 and pJAK2
- MYC level ([9]; SUM159, at 24 hours): dose-responsive decrease in MYC
